Here are results for six compounds from patent US11584775B2, “C4-modified oleanolic acid derivatives for inhibition of IL-17 and other uses” (REATA PHARMACEUTICALS, INC., priority 2015, dated 2023).

The test system of one assay is NRF2. Kind of assay: AREc32 luciferase reporter assay. To be noted: EC2×: concentration required to increase GST ARE Luciferase reporter activity by 2-fold; AREc32 cells, 19 hours. In kind it is cell-based, human. An outline of the steps:
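AREc32 cells (MCF-7 stably carrying eight rat GSTA2 ARE copies driving firefly luciferase) treated 19 h with compound (0.4–200 nM or 2–1000 nM), triplicate. Luminescence normalized to DMSO as fold-induction; variable-slope fit capped at 50-fold; EC2× = concentration giving 2-fold induction.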
Background: Reporter assays use an easily measured gene product as a stand-in for the process of interest.

Assay [1] concerns IFNγ-induced Nitric Oxide production. Kind of assay: Nitric oxide production assay in RAW 264.7 mouse macrophages. To be noted: RAW264.7, suppression of IFNγ-induced NO production normalized to cell viability (WST-1), RAW 264.7, 24 hours IFNγ. The class given is cell-based. An outline of the steps:
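Cells pre-treated 2 h with compound (0.4-200 nM or 2-1000 nM) in RPMI 1640 + 0.5% FBS, then stimulated with recombinant mouse IFNγ for 24 h at 37 °C. Nitrite measured by Griess reagent, viability by WST-1; IC50 from NO suppression normalized to viability and to DMSO/IFNγ controls.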

Another assay deals with T1, human RORγ (Homo sapiens, UniProt P51449).
T1 sequence (P51449 269-508 limits assumed): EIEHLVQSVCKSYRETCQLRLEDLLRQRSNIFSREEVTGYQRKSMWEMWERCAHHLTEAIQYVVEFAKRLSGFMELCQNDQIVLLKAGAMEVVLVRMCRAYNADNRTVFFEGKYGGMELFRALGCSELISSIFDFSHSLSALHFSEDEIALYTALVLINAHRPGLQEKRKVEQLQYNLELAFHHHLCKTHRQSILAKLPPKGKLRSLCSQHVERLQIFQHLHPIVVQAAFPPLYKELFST
Kind of assay: RORγ assay (GAL4-RORγ hybrid luciferase reporter, inverse-agonist activity). To be noted: GAL4-RORγ hybrid reporter cells, 23 hours. In kind it is cell-based. In a few lines: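 Human cell line expressing GAL4-DBD/RORγ hybrid with UAS-driven luciferase, treated in triplicate with compound (0.4–200 nM or 2–1000 nM) for 23 h at 37 °C. Luminescence normalized to DMSO; viability measured in parallel by multiplex assay. IC50 for RORγ and viability by variable-slope nonlinear regression.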

A further assay concerns hIL17. The assay is described as follows: IL-17 release from differentiated primary human T-cells (IL-17A HTRF assay). The class given is cell-based. To be noted: inhibition of IL-17A levels; primary human CD4+ T cells differentiated into Th17 cells, 46-hour incubation. An outline of the steps:
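Cryopreserved primary human CD4+ T cells were activated with anti-CD3/CD28 beads and driven to Th17 with TGF-β, IL-6, IL-23 and IL-1β in the presence of compound (2-500 nM or 4-1000 nM) for 46 h at 37° C. Supernatant IL-17A was quantified by HTRF against a standard curve and normalized to DMSO. IC50s came from variable-slope fits, with viability read by CyQuant.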

As usually defined, the IC50 is the midpoint of a concentration-inhibition curve. Read a low IC50 as higher potency. As for `COC(=O)[C@]12CCC(C)(C)C[C@H]1[C@H]1C(=O)C=C3[C@@]4(C)C=C(C#N)C(=O)[C@](C)(O)[C@@H]4CC[C@@]3(C)[C@]1(C)CC2` [Compound T6, methyl (4aS,6aR,6bS,8aR,9R,12aS,14aR,14bS)-11-cyano-9-hydroxy-2,2,6a,6b,9,12a-hexamethyl-10,14-dioxo-1,3,4,5,6,6a,6b,7,8,8a,9,10,12a,14,14a,14b-hexadecahydropicene-4a(2H)-carboxylate], in the assay on NRF2, the “EC2x: concentration giving 2-fold induction of ARE luciferase reporter” value came out at 30 nM. For the same compound, the IC50 was determined as 9.2 nM in assay [1], 115 nM at human RORγ and 32 nM in the assay with hIL17.
For `COC(=O)[C@]12CCC(C)(C)C[C@H]1[C@H]1C(=O)C=C3[C@@]4(C)C=C(C#N)C(=O)[C@@](C)(C(=O)N(C)C)[C@@H]4CC[C@@]3(C)[C@]1(C)CC2` [Compound T14], in the assay on NRF2, the “EC2x: concentration giving 2-fold induction of ARE luciferase reporter” value is >1000 nM. In addition, the IC50 was determined as 164 nM in assay [1], 139 nM at human RORγ and 46 nM with hIL17.
Taken in the same sequence, the figures for `COCC[C@]1(C)C(=O)C(C#N)=C[C@]2(C)C3=CC(=O)[C@@H]4[C@@H]5CC(C)(C)CC[C@]5(C(=O)OC)CC[C@@]4(C)[C@]3(C)CC[C@H]21` [Compound T17, methyl (4aS,6aR,6bS,8aR,9S,12aS,14aR,14bS)-11-cyano-9-(2-methoxyethyl)-2,2,6a,6b,9,12a-hexamethyl-10,14-dioxo-1,3,4,5,6,6a,6b,7,8,8a,9,10,12a,14,14a,14b-hexadecahydropicene-4a(2H)-carboxylate] were 64 nM, 19.5 nM, 250 nM and 30 nM.
The corresponding values for `CC1(C)CC[C@@]23CC[C@@]4(C)[C@]5(C)CC[C@@H]6[C@@](C)(C5=CC(=O)[C@]4(OC2=O)[C@@H]3C1)[C@H]1O[C@@]1(C#N)C(=O)[C@@]6(C)O` [Compound T50, (1aR,3S,3aR,5aR,5bS,7aS,11aR,11bS,13bS,13cR)-3-hydroxy-3,5a,5b,10,10,13b-hexamethyl-2,12,15-trioxo-3,3a,4,5,5a,6,7,9,10,11,11a,12,13b,13c-tetradecahydro-2H, 8H-11b,7a-(epoxymethano)piceno[1,2-b]oxirene-1a(5bH)-carbonitrile] are 162 nM, 65.4 nM, 1040 nM and 11 nM.
Taken in the same sequence, the figures for `COC(=O)[C@]12CCC(C)(C)C[C@H]1[C@H]1C(=O)C=C3[C@@]4(C)C=C(C#N)C(=O)[C@@](C)(NC(=O)OC(C)(C)C)[C@@H]4CC[C@@]3(C)[C@]1(C)CC2` [Compound T10] were >1000 nM, 414 nM, 1080 nM and 204 nM.
Take `CCNC(=O)[C@]12CCC(C)(C)C[C@H]1[C@H]1C(=O)C=C3[C@@]4(C)C=C(C#N)C(=O)[C@@](C)(O)[C@@H]4CC[C@@]3(C)[C@]1(C)CC2` [Compound T26, (4aS,6aR,6bS,8aR,9S,12aS,14aR,14bS)-11-cyano-N-ethyl-9-hydroxy-2,2,6a,6b,9,12a-hexamethyl-10,14-dioxo-1,3,4,5,6,6a,6b,7,8,8a,9,10,12a,14,14a,14b-hexadecahydropicene-4a(2H)-carboxamide]: in the assay with NRF2, the “EC2x: concentration giving 2-fold induction of ARE luciferase reporter” value stood at 463 nM. Moreover, the figures for the IC50 (in assay [1]; on human RORγ; in the assay with hIL17) were 370 nM, 292 nM and 132 nM, respectively.
